From patent US11596622B2, “Mazindol treatment for heroin dependence and substance use disorder” (NLS Pharmaceutics AG, priority 2017, dated 2023)

Tests used:
Type in all cases: in vivo
C57BL/6J mice = experiment: Conditioned place preference induced by the drug itself; conditions: for Distance travelled in the drug-paired compartment / Distance travelled in the two compartments (Drug + Vehicle) / Distance travelled in the vehicle-paired compartment / Distance travelled, drug-paired minus vehicle-paired compartment / Time spent in the drug-paired compartment / Time spent in the vehicle-paired compartment / Time spent, drug-paired minus vehicle-paired compartment: vehicle before preference session, day 12, mean
Text: Conditioned place preference (CPP) is a widely used procedure for studying the potential addictive effect of drugs. CPP is based upon the tendency of rodents to approach a stimulus that has previously been paired with an incentive state induced by a drug. A drug that induces a CPP may be suspected to present reinforcing effects that could lead to addiction. Numerous addictive drugs, such as opiate agonists or stimulants induce a CPP and a behavioral sensitization.
The effect of mazindol on place preference was examined in C57BL/6J mice using a method similar to the one used by Schlussman et al. (9).
The second experiment consisted in determining the optimal dose of heroin which induces the most significant CPP. For this purpose, the CPP induced by heroin at 1.25, 2.5 and 5 mg/kg was examined.
Following the habituation session (on day 1), animals (N=72) were pseudo-randomly assigned to two groups, a Control group (N=12) and a Heroin group (N=60), in a way that there was no significant difference between the two groups for the total distance travelled in the apparatus and for the percentage of time spent and the percentage distance travelled in the grey compartment and in the striped compartment.
Animals received the following treatments immediately before drug sessions: • Control group: vehicle • Heroin group: heroin (1.25 mg/kg)
Following the habituation session (on day 1), animals (N=72) were pseudo-randomly assigned to three groups, a Control group (N=12), a Heroin group (N=48) and a Mazindol group (N=12), in a way that there was no significant difference between the three groups for the total distance travelled in the apparatus and for the percentage of time spent and the percentage distance travelled in the grey compartment and in the striped compartment.
Animals received the following treatments before drug sessions: • Control group: vehicle, i.p. immediately before session. • Heroin group: heroin (1.25 mg/kg), i.p. immediately before session. • MAZ 2 group: mazindol (2 mg/kg), i.p. 60 min before session.
Animals received the following treatments before preference session: • Control group: vehicle of mazindol, i.p. 60 min before testing. • Hero group: vehicle of mazindol, i.p. 60 min before testing. • Hero-Mz 1 group: mazindol (1 mg/kg), i.p. 60 min before testing. • Hero-Mz 2 group: mazindol (2 mg/kg), i.p. 60 min before testing. • Hero-A 1 group: D-amphetamine (1 mg/kg), i.p. 30 min before testing. • MAZ 2 group: vehicle of mazindol, i.p. 60 min before testing.

Sprague-Dawley rats = experiment: Naloxone precipitated withdrawal syndrome of heroin
Protocol: The abrupt cessation of chronic opiate use results in a well characterized withdrawal syndrome with symptoms that include pain sensitivity, dysphoria, irritability, restlessness, insomnia, diarrhea and hyperventilation. In the present model, the naloxone-precipitated withdrawal syndrome is measured in rodents. Animals are chronically treated with a drug, e.g. morphine or heroin. Opiate withdrawal syndrome is elicited by an acute injection of the opiate antagonist Naloxone.
The effect of mazindol on heroin withdrawal syndrome elicited by naloxone was examined in Sprague-Dawley rats using a method similar to the one used by Jiang et al. (10),
Animals were subdivided into two groups. One group received heroin two i.p. injections/day for 12 consecutive days and a single injection on the 13th day (total: 25 injections) as exposed in Table 3 group received saline instead of heroin following the same protocol.
On day 13, animals received treatments and were tested according to the following time schedule: • T=0: i.p. injection of heroin (15 mg/kg) or vehicle. • T=2.5 h: animals individually placed in a transparent Plexiglas observation boxes (40×40×40 cm). • T=3.5 h: i.p. injection of treatment (see below). • T=4 h: i.p. injection of naloxone (5 mg/kg), start of test: observation of withdrawal symptoms as indicated in Table 4. • T=5 h: end of test, animals placed back into their home cages.
Animals received the following treatments at T 3.5 h (i.e. 30 min before injection of naloxone and observation of symptoms): • 1) Animals treated with saline during the intoxication period (days 1-12) and at T0 on day 13: • Saline group (N=8): saline (0.9% NaCl). • 2) Animals treated with […] during the intoxication period (days 1-12) and at T0 on day 13: • Hero group (N=14): saline (0.9% NaCl). • Amph 1 group (N=4): D-amphetamine (1 mg/kg). • Maz 0.125 group (N=5): mazindol (0.125 mg/kg). • Maz 0.25 group (N=6): mazindol (0.25 mg/kg). • Maz 0.5 group (N=6): mazindol (0.5 mg/kg). • Maz 1 group (N=6): mazindol (1 mg/kg). • Maz 2 group (N=5): mazindol (2 mg/kg).
A weighting factor was ascribed for each sign from which a score was calculated.
Examples: • Body weight before naloxone injection=241 g; after naloxone injection=236 g: • Weight loss score=2=100×(241−236)/241 • Number of escape attempts=8: • Score for escape attempts=2 • Profuse salivation present: • Score for profuse salivation
A global withdrawal score was then calculated: • Global score=the sum of the scores

[1] = Heroin intoxication procedure after Jiang et al., mortality; conditions: two subcutaneous injections/day of heroin at increasing doses (3 to 30 mg/kg)
Protocol: In the protocol planned before, it was planned to follow the method used by Jiang et al. Mice had to receive two subcutaneous injections/day of heroin at increasing doses (3 to 30 mg/kg) for 9 consecutive days and a single injection on the 10th day. […] It is likely that the discrepancy of toxicity between our experiments and the study of Jiang et al. partly resulted from difference in purity of heroin. Therefore, it was necessary to develop a method allowing to observe clear withdrawal symptoms and an acceptable mortality rate. This method is presented below. For information, 178 rats, including those used for the development of the method, have been used for this study of which 54 have been included in the results presented here.

[2] = Hero group N = 12 (Table 6): heroin 1.25 mg/kg i.p. before drug sessions
[3] = Hero group N = 24 (Table 5): heroin 1.25 mg/kg i.p. before drug sessions
[4] = Hero n = 14: heroin i.p. days 1-13 (2-15 mg/kg), saline 30 min before naloxone 5 mg/kg, mean
[5] = heroin-treated vs. saline rats, naloxone 5 mg/kg

SMILES: CC(=O)Oc1ccc2c3c1O[C@H]1[C@@H](OC(C)=O)C=C[C@H]4[C@@H](C2)N(C)CC[C@@]341 [Heroin]
- Distance travelled in the drug-paired compartment (C57BL/6J mice; [2]): 7919.1 cm
- Distance travelled in the two compartments (Drug + Vehicle) (C57BL/6J mice; [2]): 13647.5 cm
- Distance travelled in the vehicle-paired compartment (C57BL/6J mice; [2]): 5728.4 cm
- Distance travelled, drug-paired minus vehicle-paired compartment (C57BL/6J mice; [2]): 2190.6 cm
- Time spent in the drug-paired compartment (C57BL/6J mice; [2]): 1063.0 s
- Time spent in the vehicle-paired compartment (C57BL/6J mice; [2]): 737.0 s
- Time spent, drug-paired minus vehicle-paired compartment (C57BL/6J mice; [2]): 325.9 s
- Distance travelled in the drug-paired compartment (C57BL/6J mice; [3]): 7943.6 cm
- Distance travelled in the two compartments (Drug + Vehicle) (C57BL/6J mice; [3]): 13892.0 cm
- Distance travelled in the vehicle-paired compartment (C57BL/6J mice; [3]): 5948.4 cm
- Distance travelled, drug-paired minus vehicle-paired compartment (C57BL/6J mice; [3]): 1995.3 cm
- Time spent in the drug-paired compartment (C57BL/6J mice; [3]): 1023.7 s
- Time spent in the vehicle-paired compartment (C57BL/6J mice; [3]): 776.3 s
- Time spent, drug-paired minus vehicle-paired compartment (C57BL/6J mice; [3]): 247.4 s
- place preference induced by the drug (C57BL/6J mice; heroin 1.25 mg/kg before drug sessions): induced a place preference
- total distance travelled in two compartments (FIG. 3) (C57BL/6J mice; heroin 1.25 mg/kg before drug sessions, preference session): No significant modification
- CPP induced by heroin (second experiment) (C57BL/6J mice; heroin 1.25, 2.5 and 5 mg/kg): induced CPP at the three doses tested
- Abdominal constrictions score (Abd C) (Sprague-Dawley rats; [4]): 4.1
- Abnormal posture score (Ab P) (Sprague-Dawley rats; [4]): 0.2
- Chromodacryorrhea score (Chr) (Sprague-Dawley rats; [4]): 1.1
- Diarrhea score (Diarr) (Sprague-Dawley rats; [4]): 2.0
- Erection or ejaculation score (Er Ej) (Sprague-Dawley rats; [4]): 0.0
- Escape attempts score (Esc A) (Sprague-Dawley rats; [4]): 1.1
- Facial fasciculation or teeth chattering score (F F T C) (Sprague-Dawley rats; [4]): 2.0
- Global Score (Sprague-Dawley rats; [4]): 22.4
- Irritability score (Irrit) (Sprague-Dawley rats; [4]): 0.0
- Profuse salivation score (Pr Sal) (Sprague-Dawley rats; [4]): 5.5
- Ptosis score (Ptos) (Sprague-Dawley rats; [4]): 0.1
- Swallowing movements score (Sw M) (Sprague-Dawley rats; [4]): 0.9
- Weight loss score (W Los) (Sprague-Dawley rats; [4]): 1.9
- Wet dog shakes score (W D S) (Sprague-Dawley rats; [4]): 3.4
- global score and scores for weight loss, escape attempts, wet dog shake, diarrhea, facial fasciculation or teeth chattering and profuse salivation (Sprague-Dawley rats; [5]): induced an increase
- scores for abdominal constrictions and chromodacryorrhea (Sprague-Dawley rats; [5]): non-significantly increased
- mortality [1]: substantial mortality
